Results as given in patent US7547726B2, “AI-2 compounds and analogs based on Salmonella typhimurium LsrB structure” (The Trustees of Princeton University, priority 2004, dated 2009).
Where two headings read alike, the source gives them in different places.

Tests used:
[1] = system: V. harveyi strain MM32 (LuxN−, LuxS−); format: cell-based; details: for light production: ligand approximately 0.2 nM, 8 hr of growth
Procedure: (§1) V. harveyi strain MM32 (luxN::Cm, luxS::Tn5Kan) was used for bioluminescence assays. This strain was constructed by introducing luxS::Tn5Kan onto the chromosome of strain JAF305 (luxN::Cm) (Bassler et al., 1993; Freeman et al., 1999). S. typhimurium strain MET844 (rpsL, putRA::Kan-lsr-lacZYA, ΔlsrFGE::Cm, luxS::TPOP) was used for lsr-lacZ assays (Taga et al., 2003). V. harveyi was grown in borate-depleted autoinducer bioassay (AB) medium (Greenberg et al., 1979), and S. typhimurium was grown in borate-depleted Luria-Bertani (LB) medium. To remove borate, the media were filtered through a borate anion-specific resin, Amberlite IRA743 (Sigma-Aldrich). Specifically, 500 ml of medium was passed three times through 30 ml of resin and the column was regenerated between each passage according to a method described previously (Bennett et al., 1999). Following filtration, the pH of the medium was adjusted using KOH made with borate-depleted water. For all experiments involving borate-depleted reagents, only plastic supplies were used. To test the effect of boron on the bioluminescence and lsr-lacZ assays, boric acid was added to the borate-depleted media to a final concentration of 5 mM.
V. harveyi MM32 was grown 14 hr in borate-depleted AB at 30° C. with aeration and subsequently diluted 1:5,000 into fresh borate-depleted AB medium in the presence or absence of 5 mM boric acid. 10% autoinducer samples (v/v) were added to the diluted cells and light production was measured hourly in a Wallac Model 1450 Microbeta Plus liquid scintillation counter. […] Bioluminescence is reported as the light produced by the cells divided by the background obtained in medium alone.
(§2) Ligands were released from LsrB and LuxP as described above. All ligand concentrations were estimated by ^11B-NMR in NMR buffer supplemented with 5 mM boric acid; the area of the boric acid peak served as an internal concentration standard.
To directly examine the influence of borate on AI-2-dependent signaling in V. harveyi and S. typhimurium, borate-depleted medium was prepared. AI-2 responses (bioluminescence in V. harveyi, lsr operon induction in S. typhimurium) were measured both with and without added boric acid. In this experiment, V. harveyi strain, MM32 was used because this strain lacks the LuxS enzyme needed to biosynthesize DPD and thus produces no endogenous AI-2 signal. This strain also has the AI-1 pathway inactivated. Bioluminescence was measured following addition of enzymatically synthesized DPD or, alternatively, ligand released from either LsrB or LuxP.

V. harveyi [2] = details: cited from earlier work
[3] = system: lsr operon in S. typhimurium strain MET844 (LuxS−); test: S. typhimurium AI-2 bioassay (lsr-lacZ, β-galactosidase activity, strain MET844); format: cell-based; details: for lsr expression (β-galactosidase activity): borate-depleted LB medium, 4 hr, approximately 10 μM DPD and LsrB ligand, 4 μM LuxP ligand
Procedure: as §1
AI-2-dependent induction of the lsr operon in S. typhimurium was measured by determining the β-galactosidase activity of the lsr-lacZ promoter fusion in S. typhimurium strain MET844. Overnight cultures were grown in borate-depleted LB medium at 37° C. with aeration and were diluted 1:100 into fresh borate-depleted LB medium in the presence or absence of 5 mM boric acid. To the diluted cells (900 μl), 10% (v/v) autoinducer samples were added (100 μl), and cells were grown for 4 hr. Cell lysates were prepared and β-galactosidase activity was measured as described previously (Taga et al., 2003). β-galactosidase units are defined as [(OD420 min^−1×dilution factor)/OD600].
as §2

[4] = target: T1, S. typhimurium receptor LsrB (Salmonella typhimurium, UniProt Q8ZKQ1); test: X-ray crystal structure of the LsrB:ligand complex; format: binding; details: holo-LsrB crystal, 1.3 Å resolution
T1 construct: The final model contains all LsrB residues present in the protein (27-340); GST (N, cleaved yes); made in house; host or cells: E. coli BL21
Text: Both apo-LsrB and holo-LsrB crystallized by the hanging drop method in 0.1 M Tris-HCl (pH 8.5), 22%-25% PEG 4000 (w/v) in space group P212121. The apo-LsrB crystals initially obtained (a=38.0, b=74.0, c=116.2) were used to seed crystallization in 0.1 M Tris-HCl, pH 8.5, 18%-24% PEG 4000. Crystals were cryoprotected by brief soaks in 0.1 M Tris-HCl, pH 8.5, 20% PEG 4000, 16% (v/v) glycerol and flash frozen in liquid nitrogen. Native crystals diffracted to 1.9 Å and data were collected at 100 K using an R-AXIS-IV image plate detector mounted on a Rigaku 200HB generator. Selenomethionine LsrB crystals were grown and frozen in the same conditions as native crystals. Selenomethionine crystals diffracted to 2.1 Å resolution at NSLS beam line X25, where MAD data were collected using an ADSC Q315 CCD detector. Holo-LsrB crystals (a=37.8, b=76.6, c=109.7) were prepared by addition of approximately 0.25 mM in vitro LuxS reaction product (Schauder et aL, 2001) to the native LsrB crystallization conditions, giving a DPD:LsrB molar ratio of slightly over 1:1. […]
To identify the LsrB ligand, LsrB was crystallized in the presence of DPD and the other products generated by incubating SAH with recombinant Pfs and LuxS enzymes as previously described (Schauder et al., 2001) (FIG. 1A). The structure was determined by molecular replacement and refined to 1.3 Å resolution (Table 1). […]

V. harveyi receptor LuxP = V. harveyi receptor LuxP (Vibrio harveyi, UniProt P54300); details: Chen et al., 2002; cited from earlier work
Chain of V. harveyi receptor LuxP (P54300 24-365): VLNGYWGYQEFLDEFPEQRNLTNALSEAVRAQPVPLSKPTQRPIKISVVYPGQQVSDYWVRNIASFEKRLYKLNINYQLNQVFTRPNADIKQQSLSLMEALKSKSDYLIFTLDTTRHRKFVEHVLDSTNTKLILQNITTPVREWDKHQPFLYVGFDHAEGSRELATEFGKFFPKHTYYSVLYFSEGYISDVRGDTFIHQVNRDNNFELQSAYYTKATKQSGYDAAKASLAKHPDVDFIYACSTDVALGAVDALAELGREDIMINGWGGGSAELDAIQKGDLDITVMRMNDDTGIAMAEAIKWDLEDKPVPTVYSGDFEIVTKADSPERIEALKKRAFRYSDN

V. harveyi [5] = details: presence or absence of 5 mM boric acid; AB medium
Procedure: as §1

S. typhimurium = system: S. typhimurium
Procedure: as §1

[6] = borate-depleted AB medium plus 5 mM boric acid
[7] = 5 mM boric acid added to borate-depleted medium

CC(=O)C(=O)C(O)CO (centres unmarked) [DPD, 4,5-dihydroxy-2,3-pentanedione]
light production [1, 6]: stimulate light production | light production ([1]; borate-depleted AB medium): No light was produced | DPD final concentration inducing a linear response in light production ([1]; in the presence of 5 mM borate, 6-8 hr incubation): 0.1 to 1 nM | bioluminescence in V. harveyi (V. harveyi [2]; chemically synthesized DPD, only in the presence of boric acid (Meijler et al., 2004)): induces bioluminescence | lsr expression (β-galactosidase activity) [3]: induces lsr expression

C[C@@]1(O)OC[C@H](O)C1(O)O [LsrB ligand]
light production [1, 6]: stimulate light production | light production ([1]; borate-depleted AB medium): No light was produced | lsr expression (β-galactosidase activity) [3]: induces lsr expression

C[C@]12OC[C@H](O)[C@@]1(O)O[B-](O)(O)O2 [LuxP ligand]
light production ([1]; borate-depleted AB medium): failed to stimulate light production | lsr expression (β-galactosidase activity) [3]: induces lsr expression

C[C@@]1(O)OC[C@H](O)C1(O)O [R-THMF, (2R,4S)-2-methyl-2,3,3,4-tetrahydroxytetrahydrofuran]
binding to LsrB [4]: binds

CC12OCC(O)C1(O)O[B-](O)(O)O2 [S-THMF-borate, α-L-glycero-1-dehydro-3-hydro-penta-2,3-diulo-2,5-furanosyl-2,3-cyclic borate]
binding to LuxP (V. harveyi receptor LuxP): binds

OB(O)O [boric acid]
effect of boric acid on the ability of DPD or either receptor's ligand to activate the V. harveyi assay [1, 7]: strongly enhances | effect on growth (V. harveyi [5]): no effect | effect on growth (S. typhimurium): no effect | effect of boric acid on the ability of DPD or either receptor's ligand to activate the S. typhimurium assay [3, 7]: inhibits

N[C@@H](CCS)C(=O)O [homocysteine]
autoinducer activity (V. harveyi [2]; product of the LuxS reaction): no autoinducer activity
